Experimental data: patent publication US20030113263A1, “Methods and reagents for using mammalian melanocortin receptor antagonists to treat cachexia” (Oregon Health and Sciences University, a non-profit …, priority 2001, published 2003)

Experiments:
[1] = target: T1, human MC-4 melanocortin receptor (Homo sapiens, UniProt P32245); assay: intracellular cAMP accumulation (adenylate cyclase coupling) in transfected human 293 cells; assay type: cell-based; parameters: expressed in transfected cells; details: 293 cells expressing human MC-4 receptor, 45 min at 37° C.
Target sequence in this assay (P32245 whole entry): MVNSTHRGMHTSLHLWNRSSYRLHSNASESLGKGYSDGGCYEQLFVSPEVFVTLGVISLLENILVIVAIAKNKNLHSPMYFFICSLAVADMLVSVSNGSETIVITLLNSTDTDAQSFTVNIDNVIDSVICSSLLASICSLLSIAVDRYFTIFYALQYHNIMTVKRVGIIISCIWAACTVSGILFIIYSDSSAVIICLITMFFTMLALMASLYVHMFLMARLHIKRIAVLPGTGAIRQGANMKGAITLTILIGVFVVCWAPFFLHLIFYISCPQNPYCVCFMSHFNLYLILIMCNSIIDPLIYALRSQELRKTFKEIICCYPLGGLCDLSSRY
Protocol: Melanocortin receptor coupling to G-proteins in cells expressing the MC-4 melanocortin receptor was used analyze expression of the receptor in cell colonies transfected with the expression vectors described herein as follows. Cells (˜1×10^6) were plated in 6-well dishes, washed once with DMEM containing 1% bovine serum albumin (BSA) and 0.5mM IBMX (a phosphodiesterase inhibitor), then incubated for 45 minutes at 37° C. with varying concentrations of the melanotropic peptides. Following hormone treatment, the cells were washed twice with phosphate buffered saline and intracellular cAMP extracted by lysing the cells with 1 ml of 60% ethanol.

[2] = target: T1, human MC-4 melanocortin receptor; assay: cell-based or functional assay
Target sequence in this assay (P32245 other isoform, or with tags, fused parts or gaps): as the sequence (P32245 whole entry) above, with E42A, V65E, V103I, S109R, I169S, M215L, C318S, C319S counted along it

[3] = tested on: LPS-induced anorexia and fever in rats; details: central administration; cited from earlier work
[4] = target: T1, human MC-4 melanocortin receptor; assay: antagonism of agonist-induced cAMP elevation, Schild analysis; assay type: cell-based; parameters: expressed in transfected cells; details: agouti peptide approx. 60% pure; results not shown
Target sequence in this assay (P32245 whole entry): as the sequence (P32245 whole entry) above

**Q.** Which EC50 [1] does the source give for `CSCC[C@H](N)C(=O)N[C@@H](CCC(=O)O)C(=O)N[C@@H](Cc1c[nH]cn1)C(=O)N[C@@H](Cc1ccccc1)C(=O)N[C@@H](CCCNC(=N)N)C(=O)N[C@@H](Cc1c[nH]c2ccccc12)C(=O)NCC(=O)O` [ACTH4-10] here?
**A.** > 100 nM

**Q.** With “ACTH1-39 (from UniProt P01189 138-176) (peptide)” as the molecule, how does the Ec50 (adenylate cyclase activity, intracellular cAMP accumulation in transfected 293 cells) [2] read?
**A.** 0.68 nM

**Q.** With “ACTH4-10 (from UniProt P01189) (peptide)” as the molecule, how does the Ec50 (adenylate cyclase activity, intracellular cAMP accumulation in transfected 293 cells) [2] read?
**A.** > 100 nM

**Q.** For “Ac-Nle^4-cyclo(Asp^5, D-Nal(2)^7, Lys^10) αMSH-(4-10)-amide [SHU9119]”, which “effect on LPS-induced fever” value [3] is on record?
**A.** increased

**Q.** What about the “effect on LPS-induced suppression of food intake” value [3] of the same molecule?
**A.** reversal of LPS-induced anorexia

**Q.** With “α-melanocyte stimulating hormone [α-MSH]” as the molecule, how does the “effect on LPS-induced fever” value [3] read?
**A.** reduced

**Q.** What about the “effect on LPS-induced suppression of food intake” value [3] of the same molecule?
**A.** significant potentiation of the suppressive effects of LPS on food intake

**Q.** With “γ2-MSH (from UniProt P01189 77-88) (peptide)” as the molecule, how does the Ec50 (adenylate cyclase activity, intracellular cAMP accumulation in transfected 293 cells) [2] read?
**A.** > 100 nM

B1: agouti: murine agouti peptide produced using a baculovirus system, approximately 60% pure (protein)
chain: HLALEETLGDDRSLRSNSSMNSLDFSSVSIVALNKKSKKISRKEAEKRKRSSKKKASMKKVARPPPPSPCVATRDSCKPPAPACCDPCASCQCRFFGSACTCRVLNPNC
**Q.** Which “competition of α-MSH activation of human MC-4 melanocortin receptors” value [4] does the source give for B1 here?
**A.** Specific competition
